According to patent publication US10251395B2, “Substituted furano-/thienocycloalkylamino-2-pyrimidine derivatives and use thereof for controlling undesired plant growth” (Bayer CropScience Aktiengesellschaft, priority 2015, dated 2019):

Key:
Abutilon theophrasti [1] = assay: Pre-emergence herbicidal effect; format: in vivo; details: scored visually after 3 weeks
Outline: (§1)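 Scoring: visual, 3 weeks, % vs untreated (100% = died). Treatment: WP or EC in water, 0.2% wetting agent, sprayed on covering soil after sowing in sandy loam.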

Polygonum convolvulus [2] = assay: Pre-emergence herbicidal effect; format: in vivo; details: scored visually after 3 weeks
Outline: as §1

Matricaria inodora [3] = assay: Pre-emergence herbicidal effect; format: in vivo; details: scored visually after 3 weeks
Outline: as §1

Viola tricolor [4] = assay: Pre-emergence herbicidal effect; format: in vivo; details: scored visually after 3 weeks
Outline: as §1

Ipomoea purpurea [5] = assay: Pre-emergence herbicidal effect; format: in vivo; details: scored visually after 3 weeks
Outline: as §1

Alopecurus myosuroides [6] = assay: Pre-emergence herbicidal effect; format: in vivo; details: scored visually after 3 weeks
Outline: as §1

Avena fatua = assay: Pre-emergence herbicidal effect; format: in vivo; details: scored visually after 3 weeks
Outline: as §1

Amaranthus retroflexus [7] = assay: Pre-emergence herbicidal effect; format: in vivo; details: scored visually after 3 weeks
Outline: as §1

Cyperus esculentus = assay: Pre-emergence herbicidal effect; format: in vivo; details: scored visually after 3 weeks
Outline: as §1

Setaria viridis [8] = assay: Pre-emergence herbicidal effect; format: in vivo; details: scored visually after 3 weeks
Outline: as §1

Echinochloa crus-galli [9] = assay: Pre-emergence herbicidal effect; format: in vivo; details: scored visually after 3 weeks
Outline: as §1

Abutilon theophrasti [10] = assay: Post-emergence herbicidal effect; format: in vivo; details: assessed visually after about 3 weeks vs untreated controls
Outline: (§2)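 Herbicidal effect was rated visually roughly 3 weeks after foliar treatment, as % versus untreated plants, with 0% meaning the same as controls and 100% meaning dead. Plants were treated at the one-leaf stage in the greenhouse with aqueous WP or EC sprays at 600–800 L/ha containing 0.2% wetter.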

Polygonum convolvulus [11] = assay: Post-emergence herbicidal effect; format: in vivo; details: 320 g/ha, assessed visually after about 3 weeks vs untreated controls
Outline: as §2

Stellaria media [12] = assay: Post-emergence herbicidal effect; format: in vivo; details: assessed visually after about 3 weeks vs untreated controls
Outline: as §2

Matricaria inodora [13] = assay: Post-emergence herbicidal effect; format: in vivo; details: assessed visually after about 3 weeks vs untreated controls
Outline: as §2

Viola tricolor [14] = assay: Post-emergence herbicidal effect; format: in vivo; details: assessed visually after about 3 weeks vs untreated controls
Outline: as §2

Ipomoea purpurea [15] = assay: Post-emergence herbicidal effect; format: in vivo; details: assessed visually after about 3 weeks vs untreated controls
Outline: as §2

Alopecurus myosuroides [16] = assay: Post-emergence herbicidal effect; format: in vivo; details: 320 g/ha, assessed visually after about 3 weeks vs untreated controls
Outline: as §2

Amaranthus retroflexus [17] = assay: Post-emergence herbicidal effect; format: in vivo; details: assessed visually after about 3 weeks vs untreated controls
Outline: as §2

Setaria viridis [18] = assay: Post-emergence herbicidal effect; format: in vivo; details: assessed visually after about 3 weeks vs untreated controls
Outline: as §2

Echinochloa crus-galli [19] = assay: Post-emergence herbicidal effect; format: in vivo; details: 320 g/ha, assessed visually after about 3 weeks vs untreated controls
Outline: as §2

Stellaria media [20] = assay: Pre-emergence herbicidal effect; format: in vivo; details: scored visually after 3 weeks
Outline: as §1

Lolium multiflorum = assay: Pre-emergence herbicidal effect; format: in vivo; details: Dosage 320 g/ha, scored visually after 3 weeks
Outline: as §1

Veronica persica [21] = assay: Pre-emergence herbicidal effect; format: in vivo; details: scored visually after 3 weeks
Outline: as §1

Veronica persica [22] = assay: Post-emergence herbicidal effect; format: in vivo; details: assessed visually after about 3 weeks vs untreated controls
Outline: as §2

logP (HCOOH) = format: physicochemical; details: HCOOH
Source text: Table 2 (physicochemical characterization of selected synthesis examples)

| Structure (SMILES) | ABUTH pre-emergence efficacy (herbicidal activity) (Abutilon theophrasti [1]; Dosage 320 g/ha) [%] | POLCO pre-emergence efficacy (herbicidal activity) (Polygonum convolvulus [2]; Dosage 80 g/ha) [%] | POLCO pre-emergence efficacy (herbicidal activity) (Polygonum convolvulus [2]; Dosage 320 g/ha) [%] | MATIN pre-emergence efficacy (herbicidal activity) (Matricaria inodora [3]; Dosage 80 g/ha) [%] | MATIN pre-emergence efficacy (herbicidal activity) (Matricaria inodora [3]; Dosage 320 g/ha) [%] | VIOTR pre-emergence efficacy (herbicidal activity) (Viola tricolor [4]; Dosage 80 g/ha) [%] | VIOTR pre-emergence efficacy (herbicidal activity) (Viola tricolor [4]; Dosage 320 g/ha) [%] | PHBPU pre-emergence efficacy (herbicidal activity) (Ipomoea purpurea [5]; Dosage 320 g/ha) [%] | ALOMY pre-emergence efficacy (herbicidal activity) (Alopecurus myosuroides [6]; Dosage 320 g/ha) [%] | AVEFA pre-emergence efficacy (herbicidal activity) (Avena fatua; Dosage 320 g/ha) [%] | AMARE pre-emergence efficacy (herbicidal activity) (Amaranthus retroflexus [7]; Dosage 80 g/ha) [%] | AMARE pre-emergence efficacy (herbicidal activity) (Amaranthus retroflexus [7]; Dosage 320 g/ha) [%] | CYPES pre-emergence efficacy (herbicidal activity) (Cyperus esculentus; Dosage 320 g/ha) [%] | SETVI pre-emergence efficacy (herbicidal activity) (Setaria viridis [8]; Dosage 80 g/ha) [%] | SETVI pre-emergence efficacy (herbicidal activity) (Setaria viridis [8]; Dosage 320 g/ha) [%] | ECHCG pre-emergence efficacy (herbicidal activity) (Echinochloa crus-galli [9]; Dosage 80 g/ha) [%] | ECHCG pre-emergence efficacy (herbicidal activity) (Echinochloa crus-galli [9]; Dosage 320 g/ha) [%] | post-emergence efficacy ABUTH (Abutilon theophrasti [10]; 80 g/ha) [%] | post-emergence efficacy ABUTH (Abutilon theophrasti [10]; 320 g/ha) [%] | post-emergence efficacy POLCO (Polygonum convolvulus [11]) [%] | further results |
| --- | --- | --- | --- | --- | --- | --- | --- | --- | --- | --- | --- | --- | --- | --- | --- | --- | --- | --- | --- | --- | --- |
| Cc1cc2c(s1)CCCC2Nc1nc(N)c(Br)c(C(F)F)n1 (racemic) [compound 284] | 80 | 90 | 100 | 100 | 100 | 100 | 100 | 50 | 80 | 70 | 100 | 100 | 100 | 100 | 100 | 80 | 100 | 90 | 90 | 100 | ABUTH pre-emergence efficacy (herbicidal activity) (Abutilon theophrasti [1]; Dosage 80 g/ha): 20%; PHBPU pre-emergence efficacy (herbicidal activity) (Ipomoea purpurea [5]; Dosage 80 g/ha): 50%; ALOMY pre-emergence efficacy (herbicidal activity) (Alopecurus myosuroides [6]; Dosage 80 g/ha): 70%; AVEFA pre-emergence efficacy (herbicidal activity) (Avena fatua; Dosage 80 g/ha): 50%; CYPES pre-emergence efficacy (herbicidal activity) (Cyperus esculentus; Dosage 80 g/ha): 90%; post-emergence efficacy STEME (Stellaria media [12]; 80 g/ha): 100%; post-emergence efficacy STEME (Stellaria media [12]; 320 g/ha): 100%; post-emergence efficacy MATIN (Matricaria inodora [13]; 320 g/ha): 80%; post-emergence efficacy VIOTR (Viola tricolor [14]; 80 g/ha): 60%; post-emergence efficacy VIOTR (Viola tricolor [14]; 320 g/ha): 90%; post-emergence efficacy PHBPU (Ipomoea purpurea [15]; 80 g/ha): 90%; post-emergence efficacy PHBPU (Ipomoea purpurea [15]; 320 g/ha): 100%; post-emergence efficacy ALOMY (Alopecurus myosuroides [16]): 100%; post-emergence efficacy AMARE (Amaranthus retroflexus [17]; 80 g/ha): 80%; post-emergence efficacy AMARE (Amaranthus retroflexus [17]; 320 g/ha): 80%; post-emergence efficacy SETVI (Setaria viridis [18]; 80 g/ha): 90%; post-emergence efficacy SETVI (Setaria viridis [18]; 320 g/ha): 100%; post-emergence efficacy ECHCG (Echinochloa crus-galli [19]): 80% |
| CS(=O)(=O)c1cnc(N[C@@H]2CCCc3sccc32)nc1N [compound 24] | 100 | 100 | 100 | 100 | 100 | 100 | 100 | 100 | 100 | 90 | 100 | 100 | 60 | 90 | 100 | 100 | 100 | 100 | 100 | 80 | STEME pre-emergence efficacy (herbicidal activity) (Stellaria media [20]; Dosage 80 g/ha): 100%; STEME pre-emergence efficacy (herbicidal activity) (Stellaria media [20]; Dosage 320 g/ha): 100%; LOLMU pre-emergence efficacy (herbicidal activity) (Lolium multiflorum): 100%; VERPE pre-emergence efficacy (herbicidal activity) (Veronica persica [21]; Dosage 80 g/ha): 100%; VERPE pre-emergence efficacy (herbicidal activity) (Veronica persica [21]; Dosage 320 g/ha): 100%; post-emergence efficacy STEME (Stellaria media [12]; 80 g/ha): 80%; post-emergence efficacy STEME (Stellaria media [12]; 320 g/ha): 100%; post-emergence efficacy MATIN (Matricaria inodora [13]; 80 g/ha): 80%; post-emergence efficacy MATIN (Matricaria inodora [13]; 320 g/ha): 100%; post-emergence efficacy VIOTR (Viola tricolor [14]; 80 g/ha): 90%; post-emergence efficacy VIOTR (Viola tricolor [14]; 320 g/ha): 100%; post-emergence efficacy PHBPU (Ipomoea purpurea [15]; 80 g/ha): 80%; post-emergence efficacy PHBPU (Ipomoea purpurea [15]; 320 g/ha): 100%; post-emergence efficacy VERPE (Veronica persica [22]; 80 g/ha): 90%; post-emergence efficacy VERPE (Veronica persica [22]; 320 g/ha): 100%; post-emergence efficacy AMARE (Amaranthus retroflexus [17]; 80 g/ha): 90%; post-emergence efficacy AMARE (Amaranthus retroflexus [17]; 320 g/ha): 90%; post-emergence efficacy SETVI (Setaria viridis [18]; 320 g/ha): 80%; logP (HCOOH) (logP (HCOOH)): solid; logP (HCOOH): 1.82; 1H NMR (CDCl3, 400 MHZ, δ in ppm): 1.85 (m, 3H, 3H |
